Measured values: patent US7049138B2, “Epitope-tagged beta-amyloid precursor protein and DNA encoding the same” (Bristol-Myers Squibb Company, priority 1999, dated 2006)

Test system: HA 11 A-beta (1-40) accumulation in HEK 293/HA 11 beta-APP 695 cells
Assay: Accumulation of HA 11 A-beta (1-40) in HEK 293/HA 11 beta-APP 695 conditioned medium, position 40-specific ELISA
Type: cell-based, human
Settings: 96-well, serum-free medium with 0.2% BSA, 16 hours, dose-response, versus DMSO vehicle
Method: HEK 293/HA 11 beta-APP 695 cells were plated at confluence in 96-well plates and the indicated dose-response of either MDL 28170 (panel A), or Brefeldin A (panel B) was added for 16 hours. The accumulation of HA 11 A-beta (1-40) (position 40-specific antibody; QCB) was determined as in FIG. 5. Results are expressed as percentage inhibition of HA 11 A-beta (1-40) accumulation in comparison to wells incubated with vehicle (dimethyl sulfoxide, DMSO) alone.
Panel A: Immulon 2 microtiter wells were coated with mAB anti-HA 11 (5 μg/mL in PBS, 4° C., overnight), washed with PBS and blocked with 5% BSA in PBS. […] The change of absorbance of duplicate wells was determined at […] and results corrected for binding of antibodies to wells in the absence of peptide. […]
HEK 293/HA 11 beta-APP 695 cells were plated in 96-well tissue culture dishes in serum-free medium containing 0.2% BSA (1×10^6 cells/cm^2). The conditioned medium was harvested at the indicated times and analyzed for the presence of HA 11 A-beta position 40, as in example 4. HA 11 A-beta polypeptides ending at position 42 were detected in a similar ELISA system. […] Bound HA 11 A-beta 42 was detected with biotin-labeled mAB 108 (specific for the neo-epitope generated upon cleavage of beta-APP by […]), followed by HRP-labeled streptavidin and TMB substrate. […]

Compound	HA 11 A-beta accumulation in conditioned medium
C[C@H]1CCC/C=C/[C@@H]2C[C@H](O)C[C@H]2[C@H](O)/C=C/C(=O)O1 [brefeldin A, Brefeldin A]	decrease in the HA 11 A-beta accumulation
MDL 28170	decrease in the HA 11 A-beta accumulation
